Experimental data as given in US7662851B2, “Use of specific cyklolignans” (Axelar AB, priority 2001, dated 2010).
Where two headings read alike, the source gives them in different places.

Key:
HepG2 hepatoma cell line = test: Cell viability (XTT), HepG2; assay type: cell-based
Method: Cell proliferation kit II (Roche Inc.) is based on colorimetric change of the yellow tetrazolium salt XTT in orange formazan dye by the respiratory chain of viable cells (Roehm, N W, et al., J Immunol Methods 142:257-265, 1991). Cells seeded at a concentration of 5000/well in 100 μl medium in a 96-well plate were treated with different drugs in the given concentration. After 24 or 48 h the cells were incubated, according to the manufacturer's protocol, with XTT labelling mixture. After 4 h the formazan dye is quantified using a scanning multiwell spectrophotometer with a 495-nm filter. The absorbance is directly correlated with the number of viable cells. The standard absorbance curve was drawn by means of untreated cells seeded at a concentration of from 1000 to 10 000 cells/well with an increasing rate of 1000 cells/well. All standards and experiments were performed in triplicates.
12 different types of cell lines were seeded in 96-well plates (medium volume in a well was 100 μl), at a concentration of 10,000 cells/cm^2 in Minimal Essential Medium supplemented with fetal calf serum. When the cells had reached a concentration of 65,000 cells/cm^2, they were treated with different doses of podophyllotoxin and picropodophyllin for 48 h. Cell viability was then assayed (see above). […]

IGF-1R = IGF-1R (Homo sapiens, UniProt P08069); test: Tyrosine phosphorylation of IGF-1R in intact FM55 melanoma cells; assay type: cell-based; set-up: endogenous in cells; conditions: 0.05 μM, 1 h; for Level of phosphorylation in intact cells, substrate IGF-1R: FM55 cells, Experiment 3; for Level of IGF-1R phosphorylation in intact cells: FM55 melanoma cells, means of 3 experiments
Method: Cells were cultured to subconfluency in 6-cm plates, and then fresh medium containing 10% FBS and the desired compounds were added for 1 h. The cells were then lyzed and subjected to immunoprecipitation using specific antibodies. Immunoprecipitates were resolved by sodium dodecyl sulphate polyacrylamide gel electrophoresis (SDS-PAGE) and transferred to nitro-cellulose membranes and incubated with anti-phosphotyrosine antibody. Antibodies to actin (in cell extract) or IGF-1R beta subunit were used as loading controls. After detection the films were scanned for quantification.
The isolated cells were then lyzed in 10 ml ice-cold PBSTDS containing protease inhibitors (Carlberg, M., et al., J Biol Chem 271:17453-17462, 1996). 50 μl protein A or G agarose was added in 1 ml sample and incubated for 15 min at 4° C. on an orbital shaker. After centrifugation for 10 min at 10,000 r/min at 4° C. the supernatant was saved. The protein content was determined by a dye-binding assay with a reagent purchased from Bio-Rad. Bovine serum albumin was used as a standard. 15 μl Protein G Plus agarose and 5 μl anti-IGF-1R were added. After a 3 h incubation at 4° C. on an orbital shaker the precipitate was collected by pulse centrifugation in a micro centrifuge at 14,000×g for 10 s. The supernatant was discarded and the pellet was washed 3 times with PBSTDS.
Protein samples were solved in a 2×-sample buffer containing Laemmli buffer and 0.5% […] and boiled for 5 min at 96° C. Samples were separated by SDS-PAGE with a 4% stacking gel and 7.5% separation gel. Molecular weight markers (Bio Rad, Sweden) were run simultaneously in all experiments.
Following SDS-PAGE the proteins were transferred overnight to nitro-cellulose membranes (Hybond, Amersham, UK) and then blocked for 1 h at room temperature in a solution of 4% skimmed milk powder and 0.02% Tween 20 in PBS, pH 7.5. Incubations with the primary antibodies were performed for 1 h at room temperature, followed by 3 washes with PBS with Tween and incubation with the second antibody for 1 h room temperature. After another 3 washes the membranes were incubated with Streptavidin-labelled horseradish peroxidase for 30 min and then detected using Amersham ECL system (Amersham, UK). The films were scanned by Fluor-S (BioRad).
FM55 melanoma cells were seeded in 6-cm dishes, at a concentration of 10,000 cells/cm^2 in Minimal Essential Medium supplemented with 10% fetal calf serum (FCS). When the cells reached a density of 65,000 cells/cm^2 in the dishes, they were treated for 1 h with 0.05 μM podophyllotoxin, deoxypodophyllotoxin, picropodophyllin, deoxypicropodophyllin, 4′-demethyl-7-(4,6-O-ethylidene-β-D-glucopyranosyl)epipodophyllotoxin (etoposide) and podophyllotoxin-4,6-O-benzylidene-β-D-glucopyranoside (pf-4,6-O). Etoposide and pf-4,6-O were also administered at 15 μM. The cells were then harvested for assay and quantification of IGF-1R phosphorylation as described in Experiment 1. The values shown in Table 1 represent means of 3 experiments.
FM55 melanoma cells were cultured in the same way as described in Experiment 1. When reaching a density of 65,000 cells/cm^2 in the dishes, they were treated for 1 h with 0 (control) and 0.05 μM of picropodophyllin and podophyllotoxin, respectively. The cells were then isolated and subjected to immunoprecipitation of the IGF-1R, fibroblast growth factor receptor (FGFR), platelet-derived growth factor receptor (PDGFR), epidermal growth factor receptor (EGFR), insulin receptor (IR) and insulin substrate-1 (IRS-1) using antibodies to respective molecules. IRS-1 is a substrate of IGF-1R, and therefore its phosphorylation is dependent on phosphorylated IGF-1R. Gelelectrophoresis, Western blotting and quantification of the different signals were performed as described above.

Sequence of IGF-1R (P08069 31-1367): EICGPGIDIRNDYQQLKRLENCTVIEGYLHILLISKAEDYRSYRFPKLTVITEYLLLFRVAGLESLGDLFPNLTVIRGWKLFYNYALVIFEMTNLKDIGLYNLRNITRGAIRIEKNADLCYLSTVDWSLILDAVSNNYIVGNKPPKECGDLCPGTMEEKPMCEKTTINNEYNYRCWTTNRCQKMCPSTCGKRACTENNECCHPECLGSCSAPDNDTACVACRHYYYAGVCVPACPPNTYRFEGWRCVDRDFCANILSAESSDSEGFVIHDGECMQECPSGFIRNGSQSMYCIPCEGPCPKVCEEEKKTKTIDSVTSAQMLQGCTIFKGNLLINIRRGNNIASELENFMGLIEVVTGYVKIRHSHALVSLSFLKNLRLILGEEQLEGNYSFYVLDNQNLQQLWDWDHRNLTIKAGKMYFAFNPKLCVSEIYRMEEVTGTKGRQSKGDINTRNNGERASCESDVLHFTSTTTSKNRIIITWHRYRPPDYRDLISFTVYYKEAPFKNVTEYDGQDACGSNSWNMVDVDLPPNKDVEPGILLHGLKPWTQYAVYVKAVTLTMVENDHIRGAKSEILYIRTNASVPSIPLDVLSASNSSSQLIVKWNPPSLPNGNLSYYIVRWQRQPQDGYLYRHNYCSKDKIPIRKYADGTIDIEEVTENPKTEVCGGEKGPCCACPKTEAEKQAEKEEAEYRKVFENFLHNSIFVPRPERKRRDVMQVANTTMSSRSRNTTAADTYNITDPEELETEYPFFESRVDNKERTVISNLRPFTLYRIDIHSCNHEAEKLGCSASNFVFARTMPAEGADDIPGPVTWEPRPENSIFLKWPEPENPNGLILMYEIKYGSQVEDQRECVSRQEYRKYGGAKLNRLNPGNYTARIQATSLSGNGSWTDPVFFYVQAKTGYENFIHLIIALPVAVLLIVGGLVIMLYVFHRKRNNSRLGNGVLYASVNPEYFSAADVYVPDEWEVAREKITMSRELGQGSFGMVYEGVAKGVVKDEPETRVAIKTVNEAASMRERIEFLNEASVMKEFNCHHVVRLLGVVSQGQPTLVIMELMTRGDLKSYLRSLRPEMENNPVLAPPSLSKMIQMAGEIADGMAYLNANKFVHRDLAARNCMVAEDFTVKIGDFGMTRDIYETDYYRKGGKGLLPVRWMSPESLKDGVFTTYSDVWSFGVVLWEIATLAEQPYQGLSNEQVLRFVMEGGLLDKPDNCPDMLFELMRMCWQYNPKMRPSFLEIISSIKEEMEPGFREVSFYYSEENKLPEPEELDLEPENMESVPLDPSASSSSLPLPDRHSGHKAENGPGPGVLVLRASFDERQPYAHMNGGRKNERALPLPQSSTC

SMILES: COc1cc([C@@H]2c3cc4c(cc3[C@H](O)[C@H]3COC(=O)[C@@H]23)OCO4)cc(OC)c1OC [Picropodophyllin, picropodophyllin]
- EC50 (HepG2 hepatoma cell line; Homo sapiens, HepG2, 48 h; read-out: EC50 for cell viability): > 15 µM
- Level of phosphorylation in intact cells, substrate IGF-1R (IGF-1R): 20 % OD
- Level of IGF-1R phosphorylation in intact cells (IGF-1R): 8 % OD

SMILES: COc1cc([C@@H]2c3cc4c(cc3[C@H](O)[C@H]3COC(=O)[C@H]23)OCO4)cc(OC)c1OC [Podophyllotoxin, podophyllotoxin]
- EC50 (HepG2 hepatoma cell line; Homo sapiens, HepG2, 48 h, read-out: EC50 for cell viability): > 15 µM
- Level of phosphorylation in intact cells, substrate IGF-1R (IGF-1R): 7 % OD
- Level of IGF-1R phosphorylation in intact cells (IGF-1R): 5 % OD
